Publication PMC12136037, “Type II kinase inhibitors that target Parkinson’s disease–associated LRRK2” (Science Advances, 2025)
Where “and” joins values, the source holds several entries; their conditions need not be identical. Identical values can stand only once.

Molecular target: T1, LRRK2^RCKW (Homo sapiens, UniProt Q5S007)
T1 construct: LRRK2 R1327 to E2527; His6-Z-tag (TEV cleavable) (N, cleaved yes); host or cells: Sf9 insect cells (baculovirus)
T1 sequence (Q5S007 1327-2527): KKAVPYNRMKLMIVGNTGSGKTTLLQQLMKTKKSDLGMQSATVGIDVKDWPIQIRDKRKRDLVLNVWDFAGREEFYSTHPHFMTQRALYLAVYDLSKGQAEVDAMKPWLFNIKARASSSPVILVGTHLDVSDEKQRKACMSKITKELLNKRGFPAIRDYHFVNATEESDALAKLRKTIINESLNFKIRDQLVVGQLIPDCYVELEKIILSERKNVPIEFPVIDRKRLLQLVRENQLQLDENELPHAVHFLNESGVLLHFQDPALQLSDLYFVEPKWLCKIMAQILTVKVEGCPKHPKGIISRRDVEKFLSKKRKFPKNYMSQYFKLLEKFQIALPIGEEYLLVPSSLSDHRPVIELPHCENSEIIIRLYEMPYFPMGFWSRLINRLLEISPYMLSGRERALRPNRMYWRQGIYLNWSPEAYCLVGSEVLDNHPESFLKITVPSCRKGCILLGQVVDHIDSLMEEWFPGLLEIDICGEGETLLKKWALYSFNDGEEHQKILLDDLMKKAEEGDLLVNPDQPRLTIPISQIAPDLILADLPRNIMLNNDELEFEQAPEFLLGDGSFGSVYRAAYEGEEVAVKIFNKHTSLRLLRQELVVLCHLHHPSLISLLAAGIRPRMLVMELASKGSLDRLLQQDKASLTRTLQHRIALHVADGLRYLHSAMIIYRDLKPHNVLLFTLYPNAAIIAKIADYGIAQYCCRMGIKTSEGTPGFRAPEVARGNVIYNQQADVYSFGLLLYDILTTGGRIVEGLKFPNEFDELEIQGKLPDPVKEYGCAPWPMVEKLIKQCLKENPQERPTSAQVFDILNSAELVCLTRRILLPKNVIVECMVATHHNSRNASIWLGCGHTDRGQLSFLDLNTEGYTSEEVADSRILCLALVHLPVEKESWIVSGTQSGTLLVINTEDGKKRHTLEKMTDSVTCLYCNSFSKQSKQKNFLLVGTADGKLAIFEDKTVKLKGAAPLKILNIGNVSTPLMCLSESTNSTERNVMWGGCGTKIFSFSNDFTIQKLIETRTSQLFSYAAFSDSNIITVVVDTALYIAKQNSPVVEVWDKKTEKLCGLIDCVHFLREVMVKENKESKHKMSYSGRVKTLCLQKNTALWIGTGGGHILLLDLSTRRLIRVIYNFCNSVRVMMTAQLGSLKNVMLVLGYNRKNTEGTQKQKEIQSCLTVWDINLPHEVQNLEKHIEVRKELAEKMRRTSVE
Assay: Biochemical LRRK2 activity assay (PhosphoSense, AssayQuant SOX peptide AQT0615)
Conditions: for IC50: LRRK2^RCKW kinase activity, in vitro; for normalized response (LRRK2 activity): normalized to 0% (no kinase) and 100% (no inhibitor) control, two singlicate columns per compound
Summary of the method: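 Controls lacked protein and compound (0%) or compound only (100%). IC50 derived by nonlinear regression of normalized response versus log[inhibitor].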

IC50 | normalized response (LRRK2 activity) (log[inhibitor(mol)] -5.12494) | normalized response (LRRK2 activity) (log[inhibitor(mol)] -5.60206) | normalized response (LRRK2 activity) (log[inhibitor(mol)] -6.30103) | normalized response (LRRK2 activity) (log[inhibitor(mol)] -6.90309) | normalized response (LRRK2 activity) (log[inhibitor(mol)] -7.30103) | normalized response (LRRK2 activity) (log[inhibitor(mol)] -7.60206) | normalized response (LRRK2 activity) (log[inhibitor(mol)] -8.09691) | normalized response (LRRK2 activity) (log[inhibitor(mol)] -8.61979) | normalized response (LRRK2 activity) (log[inhibitor(mol)] -9.09691) | normalized response (LRRK2 activity) (log[inhibitor(mol)] -9.39794) | normalized response (LRRK2 activity) (log[inhibitor(mol)] -4.82391) | SMILES
156 ± 33 nM | -6.986% and -9.956% | 21.8981% and 20.2655% | 13.87% and 15.03% | 58.2022% and 57.0299% | 81.6541% and 110.82% | 85.6497% and 54.8081% | 91.8548% and 92.1679% | 98.0477% and 97.5874% | 93.5857% and 99.2323% | 96.7834% and 110.495% | – | Cc1ccc(NC(=O)C2(C(=O)Nc3cccc(-c4c[nH]c5ncnc(N6CCOCC6)c45)c3)CC2)cc1 [Compound 14]
1100 ± 217 nM | 0.6005% and -2.272% | 29.0484% and 32.3505% | 66.3591% and 78.0881% | 96.3721% and 94.5984% | 96.366% and 105.259% | 97.2621% and 95.7829% | 97.8759% and 91.3822% | 98.0661% and 96.7588% | 100.497% and 98.6001% | 96.0714% and 99.3612% | -5.114% and -9.8151% | COc1ccc(NC(=O)C2(C(=O)Nc3cccc(-c4c[nH]c5ncnc(N6CCOCC6)c45)c3)CC2)cc1 [Compound 16]
717 ± 14 nM | – | 15.0853% and 13.379% | 62.4187% and 38.0646% | 95.7707% and 92.6957% | 101.552% and 99.1095% | 102.657% and 105.64% | 106.745% and 99.576% | 101.35% and 101.951% | 104.075% and 108.101% | 110.679% and 104.597% | – | O=C(Nc1ccc(Cl)cc1)C1(C(=O)Nc2cccc(-c3c[nH]c4ncnc(N5CCOCC5)c34)c2)CC1 [Compound 13]
1190 ± 231 nM | 6.394% and 5.578% | 30.1593% and 37.3588% | 66.9115% and 76.4371% | 91.3884% and 99.1893% | 98.0109% and 87.3375% | 102.16% and 100.865% | 98.4037% and 99.8706% | 99.6435% and 101.436% | – | 101.258% and 60.2522% | – | Cc1cc(F)ccc1NC(=O)C1(C(=O)Nc2cccc(-c3c[nH]c4ncnc(N5CCOCC5)c34)c2)CC1 [Compound 24]
185 ± 10 nM | -9.6118% and -10.6428% | -5.033% and -3.426% | 19.2953% and 18.2204% | 61.3205% and 61.6605% | 88.0559% and 79.7364% | 100.582% and 98.3497% | 94.604% and 97.0225% | 106.516% and 96.1066% | 107.272% and 96.9347% | 103.198% and 102.243% | -3.585% and -13.2094% | O=C(Nc1ccc(F)cc1)C1(C(=O)Nc2cccc(-c3c[nH]c4ncnc(N5CCOCC5)c34)c2)CC1 [Compound 2]
331 ± 59 nM | -8.581% and -13.1049% | -3.229% and 0.9871% | 31.841% and 40.7652% | 74.4117% and 83.0044% | 89.3998% and 91.1429% | 98.2625% and 97.8145% | 90.8667% and 93.1069% | 91.1981% and 94.2547% | 94.6536% and 91.2165% | 100.092% and 102.338% | – | COc1cc(NC(=O)C2(C(=O)Nc3cccc(-c4c[nH]c5ncnc(N6CCOCC6)c45)c3)CC2)ccc1F [Compound 21]
167 ± 4 nM | – | – | 8.354% and 15.3302% | 58.3207% and 57.3774% | 76.6433% and 88.9388% | 88.7743% and 91.0393% | 93.6662% and 93.1068% | 96.9841% and 102.616% | 103.96% and 100.631% | 95.5418% and 116.272% | 9.714% and 10.3287% | O=C(Nc1cccc(-c2c[nH]c3ncnc(N4CCOCC4)c23)c1)c1cccn(-c2ccc(F)cc2)c1=O [Compound 4]
960 ± 33 nM | -0.2711% and -2.401% | 22.7451% and 24.0892% | 67.6419% and 69.4402% | 95.7584% and 98.1889% | 103.897% and 98.4037% | 108.801% and 106.855% | 103.13% and 100.705% | 105.315% and 96.9982% | 106.518% and 101.982% | 107.174% and 104.775% | – | CCc1ccc(NC(=O)C2(C(=O)Nc3cccc(-c4c[nH]c5ncnc(N6CCOCC6)c45)c3)CC2)cc1 [Compound 15]

SMILES | IC50 | normalized response (LRRK2 activity) (log[inhibitor(mol)] -5.12494) | normalized response (LRRK2 activity) (log[inhibitor(mol)] -5.60206) | normalized response (LRRK2 activity) (log[inhibitor(mol)] -6.30103) | normalized response (LRRK2 activity) (log[inhibitor(mol)] -6.90309) | normalized response (LRRK2 activity) (log[inhibitor(mol)] -7.30103) | normalized response (LRRK2 activity) (log[inhibitor(mol)] -7.60206) | normalized response (LRRK2 activity) (log[inhibitor(mol)] -8.09691) | normalized response (LRRK2 activity) (log[inhibitor(mol)] -8.61979) | normalized response (LRRK2 activity) (log[inhibitor(mol)] -9.09691) | normalized response (LRRK2 activity) (log[inhibitor(mol)] -9.39794) | normalized response (LRRK2 activity) (log[inhibitor(mol)] -4.82391)
COc1cc2c(Oc3ccc(NC(=O)C4(C(=O)Nc5ccc(F)cc5)CC4)cc3F)ccnc2cc1OCCCN1CCOCC1 [Foretinib, reference compound] | – | -8.307% and -10.693% | -1.8523% and 5.65% | 28.3235% and 31.8978% | 69.5315% and 73.0571% | 85.8697% and 90.8136% | 93.5528% and 93.9107% | 88.4499% and 91.6177% | 92.1788% and 92.8283% | 95.8547% and 84.8889% | 98.1654% and 60.9912% | –
Cc1ccc(C(=O)Nc2ccc(CN3CCN(C)CC3)c(C(F)(F)F)c2)cc1C#Cc1cnc2cccnn12 [Ponatinib, reference compound] | – | – | – | 56.5539% and 57.6737% | 39.5492% and 29.1129% | 59.9414% and 56.1669% | 77.794% and 52.662% | 99.8669% and 100.13% | 102.911% | 103.335% and 101.393% | 103.789% and 105.568% | –
